Data: ChEMBL document CHEMBL1201862, “PubChem BioAssay data set” (2004)
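Each compound was tested at five concentrations against cells in 96-well plates for 48 hours. Abbreviation: GI50, concentration required for 50% inhibition of growth.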 Activity calls are given as the source filed them. Rule as the data show it: active = GI50 up to about 1.1 µM and inactive = higher.

Key:
Assay in all cases: NCI anticancer screen, dose series, 48 h
[1] = system: 786-0
[2] = system: A498
[3] = system: A549
[4] = system: ACHN
[5] = system: BT-549
[6] = system: CAKI-1
[7] = system: CCRF-CEM
[8] = system: COLO 205
[9] = system: DLD-1
[10] = system: DMS-114
[11] = system: DMS-273
[12] = system: DU-145
[13] = system: EKVX
[14] = system: HCC 2998
[15] = system: HCT-116
[16] = system: HCT-15
[17] = system: HL-60
[18] = system: HOP-18
[19] = system: HOP-62
[20] = system: HOP-92
[21] = system: HT-29
[22] = system: Hs-578T
[23] = system: IGROV-1
[24] = system: K562
[25] = system: KM-20L2
[26] = system: KM12
[27] = system: LOX IMVI
[28] = system: LXFL 529
[29] = system: M14
[30] = system: M19-MEL
[31] = system: MCF7
[32] = system: MDA-MB-231
[33] = system: MDA-MB-435
[34] = system: MDA-N
[35] = system: MOLT-4
[36] = system: Malme-3M
[37] = system: NCI-H226
[38] = system: NCI-H23
[39] = system: NCI-H460
[40] = system: NCI-H522
[41] = system: NCI/ADR-RES
[42] = system: OVCAR-3
[43] = system: OVCAR-4
[44] = system: OVCAR-5
[45] = system: OVCAR-8
[46] = system: PC-3
[47] = system: RPMI-8226
[48] = system: RXF 393
[49] = system: RXF 631
[50] = system: SF-268
[51] = system: SF-295
[52] = system: SF-539
[53] = system: SK-MEL-28
[54] = system: SK-MEL-2
[55] = system: SK-MEL-5
[56] = system: SK-OV-3
[57] = system: SN12C
[58] = system: SNB-19
[59] = system: SNB-75
[60] = system: SNB-78
[61] = system: SR
[62] = system: SW-620
[63] = system: T47D
[64] = system: TK-10
[65] = system: U-251
[66] = system: UACC-257
[67] = system: UACC-62
[68] = system: UO-31
[69] = system: XF498

## O=P1(N(CCCl)CCCl)NCCCO1 (centres undefined) [CYCLOPHOSPHAMIDE ANHYDROUS]
[1]
  GI50: > 250 µM (inactive)
[2]
  GI50: > 238 µM (inactive)
[3]
  GI50: > 239 µM (inactive)
[4]
  GI50: > 250 µM (inactive)
[5]
  GI50: > 250 µM (inactive)
[6]
  GI50: > 192 µM (inactive)
[7]
  GI50: 200 µM (inactive)
[8]
  GI50: > 250 µM (inactive)
[9]
  GI50: > 250 µM (inactive)
[10]
  GI50: > 250 µM (inactive)
[11]
  GI50: > 246 µM (inactive)
[12]
  GI50: > 250 µM (inactive)
[13]
  GI50: > 250 µM (inactive)
[14]
  GI50: 193 µM (inactive)
[15]
  GI50: > 250 µM (inactive)
[16]
  GI50: > 250 µM
[17]
  GI50: 183 µM (inactive)
[18]
  GI50: 121 µM (inactive)
[19]
  GI50: > 247 µM (inactive)
[20]
  GI50: > 246 µM (inactive)
[21]
  GI50: > 226 µM (inactive)
[22]
  GI50: > 250 µM (inactive)
[23]
  GI50: > 216 µM (inactive)
[24]
  GI50: 213 µM (inactive)
[25]
  GI50: > 250 µM (inactive)
[26]
  GI50: > 238 µM (inactive)
[27]
  GI50: 248 µM (inactive)
[28]
  GI50: > 250 µM (inactive)
[29]
  GI50: > 250 µM (inactive)
[30]
  GI50: 218 µM (inactive)
[31]
  GI50: > 250 µM (inactive)
[32]
  GI50: > 250 µM (inactive)
[33]
  GI50: > 250 µM (inactive)
[34]
  GI50: > 250 µM (inactive)
[35]
  GI50: 249 µM (inactive)
[36]
  GI50: > 250 µM (inactive)
[37]
  GI50: 249 µM (inactive)
[38]
  GI50: > 235 µM (inactive)
[39]
  GI50: > 238 µM (inactive)
[40]
  GI50: > 250 µM (inactive)
[41]
  GI50: > 250 µM (inactive)
[42]
  GI50: > 243 µM (inactive)
[43]
  GI50: > 250 µM (inactive)
[44]
  GI50: > 239 µM (inactive)
[45]
  GI50: > 238 µM (inactive)
[46]
  GI50: > 250 µM (inactive)
[47]
  GI50: > 250 µM (inactive)
[48]
  GI50: > 250 µM (inactive)
[49]
  GI50: > 250 µM (inactive)
[50]
  GI50: > 250 µM (inactive)
[51]
  GI50: 169 µM (inactive)
[52]
  GI50: > 250 µM (inactive)
[53]
  GI50: > 250 µM (inactive)
[54]
  GI50: > 238 µM (inactive)
[55]
  GI50: > 242 µM (inactive)
[56]
  GI50: 248 µM (inactive)
[57]
  GI50: > 250 µM (inactive)
[58]
  GI50: > 250 µM (inactive)
[59]
  GI50: > 232 µM (inactive)
[60]
  GI50: > 209 µM (inactive)
[61]
  GI50: > 250 µM (inactive)
[62]
  GI50: > 250 µM (inactive)
[63]
  GI50: > 88.7 µM (inactive)
[64]
  GI50: > 250 µM (inactive)
[65]
  GI50: > 250 µM (inactive)
[66]
  GI50: 211 µM (inactive)
[67]
  GI50: > 250 µM (inactive)
[68]
  GI50: > 250 µM (inactive)
[69]
  GI50: 177 µM (inactive)
